Legend:
Assay type in all cases: in vivo
rice (Oryza saliva) [1] = assay: Test B flooded paddy test; details: Rate 1000 g/ha, scale of 0 to 100 where 0 is no effect and 100 is complete control, visually evaluated after 13 to 15 days
Protocol: (§1) At the same time, plants selected from these crop and weed species and also blackgrass (Alopecurus myosuroides), wheat (Triticum aestivum) and wild oat (Avena fatua) were treated with postemergence applications of test chemicals formulated in the same manner. Plants ranged in height from 2 to 18 cm (1- to 4-leaf stage) for postemergence treatments. Plant species in the flooded paddy test consisted of rice (Oryza saliva), smallflower flatsedge (Cyperus difformis), duck salad (Heteranthera limosa) and barnyardgrass (Echinochloa crus-galli) grown to the 2-leaf stage for testing. Treated plants and controls were maintained in a greenhouse for 13 to 15 days, after which time all species were compared to controls and visually evaluated. Plant response ratings, summarized in Table B, are based on a scale of 0 to 100 where 0 is no effect and 100 is complete control. A dash (-) response means no test result.

[2] = system: duck salad (Heteranthera limosa); assay: Test B flooded paddy test; details: Rate 1000 g/ha, scale of 0 to 100 where 0 is no effect and 100 is complete control, visually evaluated after 13 to 15 days
Protocol: as §1

[3] = system: smallflower flatsedge (Cyperus difformis); assay: Test B flooded paddy test; details: Rate 1000 g/ha, scale of 0 to 100 where 0 is no effect and 100 is complete control, visually evaluated after 13 to 15 days
Protocol: as §1

[4] = system: barnyardgrass (Echinochloa crus-galli); assay: Test B flooded paddy test; details: Rate 1000 g/ha, scale of 0 to 100 where 0 is no effect and 100 is complete control, visually evaluated after 13 to 15 days
Protocol: as §1

rice (Oryza saliva) [5] = assay: Test C flooded paddy test; details: for Rice plant response rating: Flooded Paddy, scale 0 to 100, 0 no effect, 100 complete control; for Plant response rating, Rice: flooded paddy test, scale 0 to 100 (0 no effect, 100 complete control)
Outline: (§2)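 Response on a 0-to-100 scale (no effect to complete control) was assessed by eye versus controls. Plants had reached 2 leaves when treated in flooded paddy conditions. The assessment took place after 12–14 days of greenhouse growth.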

[6] = system: duck salad (Heteranthera limosa); assay: Test C flooded paddy test; details: for Ducksalad plant response rating: Flooded Paddy, scale 0 to 100, 0 no effect, 100 complete control; for Plant response rating, Ducksalad: flooded paddy test, scale 0 to 100 (0 no effect, 100 complete control)
Outline: as §2

[7] = system: smallflower flatsedge (Cyperus difformis); assay: Test C flooded paddy test; details: for Flatsedge plant response rating: Flooded Paddy, scale 0 to 100, 0 no effect, 100 complete control; for Plant response rating, Flatsedge: flooded paddy test, scale 0 to 100 (0 no effect, 100 complete control)
Outline: as §2

[8] = system: barnyardgrass (Echinochloa crus-galli); assay: Test C flooded paddy test; details: for Barnyardgrass plant response rating: Flooded Paddy, scale 0 to 100, 0 no effect, 100 complete control; for Plant response rating, Barnyardgrass: flooded paddy test, scale 0 to 100 (0 no effect, 100 complete control)
Outline: as §2

[9] = system: crabgrass (Digitaria sanguinalis); assay: Test B postemergence; details: 13 to 15 days
Outline: (§3)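 Preemergence: seeds planted and treated with test chemicals in non-phytotoxic solvent with surfactant; postemergence on plants 2–18 cm (1- to 4-leaf stage). Kept in greenhouse 13–15 days, then visually rated against controls on a 0 (no effect) to 100 (complete control) scale.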

[10] = system: velvetleaf (Abutilon theophrasti); assay: Test B postemergence; details: 13 to 15 days
Outline: as §3

[11] = system: Surinam grass (Brachiaria decumbens); assay: Test B postemergence; details: 13 to 15 days
Outline: as §3

[12] = system: wheat (Triticum aestivum); assay: Test B postemergence; details: 13 to 15 days
Outline: as §3

[13] = system: blackgrass (Alopecurus myosuroides); assay: Test B postemergence; details: 13 to 15 days
Outline: as §3

[14] = system: lambsquarters (Chenopodium album); assay: Test B postemergence; details: 13 to 15 days
Outline: as §3

corn (Zea mays) [15] = assay: Test B postemergence; details: 13 to 15 days
Outline: as §3

[16] = system: cocklebur (Xanthium strumarium); assay: Test B postemergence; details: 13 to 15 days
Outline: as §3

[17] = system: giant foxtail (Setaria faberii); assay: Test B postemergence; details: 13 to 15 days
Outline: as §3

[18] = system: morning glory (Ipomoea hederacea); assay: Test B postemergence; details: 13 to 15 days
Outline: as §3

wild oat (Avena fatua) = assay: Test B postemergence; details: 13 to 15 days
Outline: as §3

[19] = system: barnyardgrass (Echinochloa crus-galli); assay: Test B postemergence; details: 13 to 15 days
Outline: as §3

[20] = system: pigweed (Amaranthus retroflexus); assay: Test B postemergence; details: 13 to 15 days
Outline: as §3

[21] = system: crabgrass (Digitaria sanguinalis); assay: Test B preemergence
Outline: as §3

[22] = system: velvetleaf (Abutilon theophrasti); assay: Test B preemergence
Outline: as §3

[23] = system: Surinam grass (Brachiaria decumbens); assay: Test B preemergence
Outline: as §3

rice (Oryza saliva) [24] = assay: Test B preemergence
Outline: as §3

[25] = system: lambsquarters (Chenopodium album); assay: Test B preemergence
Outline: as §3

corn (Zea mays) [26] = assay: Test B preemergence
Outline: as §3

[27] = system: cocklebur (Xanthium strumarium); assay: Test B preemergence
Outline: as §3

[28] = system: giant foxtail (Setaria faberii); assay: Test B preemergence
Outline: as §3

[29] = system: morning glory (Ipomoea hederacea); assay: Test B preemergence; details: preemergence; Rate 125 g/ha; scale of 0 to 100 where 0 is no effect and 100 is complete control; 13 to 15 days
Outline: as §3

[30] = system: barnyardgrass (Echinochloa crus-galli); assay: Test B preemergence
Outline: as §3

[31] = system: pigweed (Amaranthus retroflexus); assay: Test B preemergence
Outline: as §3

[32] = Rate 125 g/ha, scale 0 (no effect) to 100 (complete control)
[33] = Rate 500 g/ha, scale 0 to 100, 0 is no effect, 100 is complete control
[34] = Preemergence, Rate 500 g/ha, scale 0 to 100, 0 no effect, 100 complete control
[35] = preemergence, Rate 125 g/ha, scale of 0 to 100 where 0 is no effect and 100 is complete control, 13 to 15 days

## COc1cccc(N2CCC(n3ccc(C(C)(C)C)n3)C2=O)c1 (stereo not shown) [Compound 57]
Rice (Oryza saliva) [1]
  Plant response rating, Rice: 90
[2]
  Plant response rating, Ducksalad: 100
[3]
  Plant response rating, Flatsedge: 100
[4]
  Plant response rating, Barnyardgrass: 100

## CC(C)(C)c1ccn(C2CCN(c3ccc(F)c(Cl)c3)C2=O)n1 (stereo not shown) [Compound 46]
Rice (Oryza saliva) [1]
  Plant response rating, Rice: 90
[2]
  Plant response rating, Ducksalad: 70
[4]
  Plant response rating, Barnyardgrass: 100
Rice (Oryza saliva) [5]; Rate 250 g/ha
  Rice plant response rating: 0
Rice (Oryza saliva) [5]; Rate 500 g/ha
  Rice plant response rating: 40
Rice (Oryza saliva) [5]; Rate 62 g/ha
  Plant response rating, Rice: 0
Rice (Oryza saliva) [5]; Rate 125 g/ha
  Plant response rating, Rice: 0
[6]; Rate 250 g/ha
  Ducksalad plant response rating: 20
[6]; Rate 500 g/ha
  Ducksalad plant response rating: 50
[6]; Rate 62 g/ha
  Plant response rating, Ducksalad: 0
[6]; Rate 125 g/ha
  Plant response rating, Ducksalad: 0
[7]; Rate 250 g/ha
  Flatsedge plant response rating: 90
[7]; Rate 500 g/ha
  Flatsedge plant response rating: 100
[7]; Rate 62 g/ha
  Plant response rating, Flatsedge: 80
[7]; Rate 125 g/ha
  Plant response rating, Flatsedge: 90
[8]; Rate 250 g/ha
  Barnyardgrass plant response rating: 50
[8]; Rate 500 g/ha
  Barnyardgrass plant response rating: 60
[8]; Rate 62 g/ha
  Plant response rating, Barnyardgrass: 0
[8]; Rate 125 g/ha
  Plant response rating, Barnyardgrass: 20
[9]; [32]
  Plant response rating, Crabgrass: 0
[9]; [33]
  Plant response rating, Crabgrass: 0
[10]; [32]
  Plant response rating, Velvetleaf: 0
[10]; [33]
  Plant response rating, Velvetleaf: 0
[11]; [32]
  Plant response rating, Surinam grass: 0
[11]; [33]
  Plant response rating, Surinam grass: 0
[12]; [32]
  Plant response rating, Wheat: 0
[12]; [33]
  Plant response rating, Wheat: 0
[13]; [32]
  Plant response rating, Blackgrass: 0
[13]; [33]
  Plant response rating, Blackgrass: 0
[14]; [32]
  Plant response rating, Lambsquarters: 0
[14]; [33]
  Plant response rating, Lambsquarters: 70
Corn (Zea mays) [15]; [32]
  Plant response rating, Corn: 0
Corn (Zea mays) [15]; [33]
  Plant response rating, Corn: 0
[16]; [32]
  Plant response rating, Cocklebur: 0
[16]; [33]
  Plant response rating, Cocklebur: 0
[17]; [32]
  Plant response rating, Foxtail, Giant: 0
[17]; [33]
  Plant response rating, Foxtail, Giant: 0
[18]; [32]
  Plant response rating, Morningglory: 0
[18]; [33]
  Plant response rating, Morningglory: 0
Wild oat (Avena fatua); [32]
  Plant response rating, Wild Oat: 0
Wild oat (Avena fatua); [33]
  Plant response rating, Wild Oat: 0
[19]; [32]
  Plant response rating, Barnyardgrass: 0
[19]; [33]
  Plant response rating, Barnyardgrass: 0
[20]; [32]
  Plant response rating, Pigweed: 0
[20]; [33]
  Plant response rating, Pigweed: 0
[21]; [34]
  Plant response rating, Crabgrass: 0
[21]; [35]
  Plant response rating, Crabgrass: 0
[22]; [34]
  Plant response rating, Velvetleaf: 0
[22]; [35]
  Plant response rating, Velvetleaf: 0
[23]; [34]
  Plant response rating, Surinam grass: 0
[23]; [35]
  Plant response rating, Surinam grass: 0
Rice (Oryza saliva) [24]; [34]
  Plant response rating, Rice: 0
Rice (Oryza saliva) [24]; [35]
  Plant response rating, Rice: 0
[25]; [34]
  Plant response rating, Lambsquarters: 100
[25]; [35]
  Plant response rating, Lambsquarters: 100
Corn (Zea mays) [26]; [34]
  Plant response rating, Corn: 0
Corn (Zea mays) [26]; [35]
  Plant response rating, Corn: 0
[27]; [34]
  Plant response rating, Cocklebur: 0
[27]; [35]
  Plant response rating, Cocklebur: 0
[28]; [34]
  Plant response rating, Foxtail, Giant: 0
[28]; [35]
  Plant response rating, Foxtail, Giant: 0
[29]
  Plant response rating, Morningglory: 0
[30]; [34]
  Plant response rating, Barnyardgrass: 80
[30]; [35]
  Plant response rating, Barnyardgrass: 0
[31]; [34]
  Plant response rating, Pigweed: 100
[31]; [35]
  Plant response rating, Pigweed: 100
